What was measured:
[1] = target: Vasopressin V2 receptor (Homo sapiens, UniProt P30518)
[2] = target: T1, Adenosine receptor A1 (Homo sapiens, UniProt P30542)
T1 sequence (P30542 whole entry): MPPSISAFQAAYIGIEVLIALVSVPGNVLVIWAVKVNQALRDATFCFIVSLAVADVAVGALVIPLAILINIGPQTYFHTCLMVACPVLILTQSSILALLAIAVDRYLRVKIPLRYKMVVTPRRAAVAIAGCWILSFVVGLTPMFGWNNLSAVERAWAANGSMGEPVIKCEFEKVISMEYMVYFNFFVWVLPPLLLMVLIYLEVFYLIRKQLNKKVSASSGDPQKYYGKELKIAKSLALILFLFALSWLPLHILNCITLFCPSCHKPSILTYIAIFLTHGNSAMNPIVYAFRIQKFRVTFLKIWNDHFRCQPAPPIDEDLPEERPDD

[3] = target: T2, Alpha-2A adrenergic receptor (Homo sapiens, UniProt P08913); assay type: functional, cell-based
T2 sequence (P08913 whole entry): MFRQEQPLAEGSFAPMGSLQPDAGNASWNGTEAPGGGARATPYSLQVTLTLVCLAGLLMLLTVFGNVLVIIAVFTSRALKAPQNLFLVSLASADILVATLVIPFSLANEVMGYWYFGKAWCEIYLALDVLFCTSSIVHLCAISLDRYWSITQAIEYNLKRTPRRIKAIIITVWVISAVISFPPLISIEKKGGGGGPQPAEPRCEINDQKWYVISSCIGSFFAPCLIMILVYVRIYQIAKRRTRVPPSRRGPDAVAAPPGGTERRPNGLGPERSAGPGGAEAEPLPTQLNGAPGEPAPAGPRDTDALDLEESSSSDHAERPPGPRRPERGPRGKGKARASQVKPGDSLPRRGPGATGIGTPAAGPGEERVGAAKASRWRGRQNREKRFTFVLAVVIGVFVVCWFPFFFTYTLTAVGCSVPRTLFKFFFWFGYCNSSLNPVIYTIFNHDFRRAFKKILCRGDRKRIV

[4] = target: T3, Glucocorticoid receptor (Homo sapiens, UniProt P04150)
T3 sequence (P04150 whole entry): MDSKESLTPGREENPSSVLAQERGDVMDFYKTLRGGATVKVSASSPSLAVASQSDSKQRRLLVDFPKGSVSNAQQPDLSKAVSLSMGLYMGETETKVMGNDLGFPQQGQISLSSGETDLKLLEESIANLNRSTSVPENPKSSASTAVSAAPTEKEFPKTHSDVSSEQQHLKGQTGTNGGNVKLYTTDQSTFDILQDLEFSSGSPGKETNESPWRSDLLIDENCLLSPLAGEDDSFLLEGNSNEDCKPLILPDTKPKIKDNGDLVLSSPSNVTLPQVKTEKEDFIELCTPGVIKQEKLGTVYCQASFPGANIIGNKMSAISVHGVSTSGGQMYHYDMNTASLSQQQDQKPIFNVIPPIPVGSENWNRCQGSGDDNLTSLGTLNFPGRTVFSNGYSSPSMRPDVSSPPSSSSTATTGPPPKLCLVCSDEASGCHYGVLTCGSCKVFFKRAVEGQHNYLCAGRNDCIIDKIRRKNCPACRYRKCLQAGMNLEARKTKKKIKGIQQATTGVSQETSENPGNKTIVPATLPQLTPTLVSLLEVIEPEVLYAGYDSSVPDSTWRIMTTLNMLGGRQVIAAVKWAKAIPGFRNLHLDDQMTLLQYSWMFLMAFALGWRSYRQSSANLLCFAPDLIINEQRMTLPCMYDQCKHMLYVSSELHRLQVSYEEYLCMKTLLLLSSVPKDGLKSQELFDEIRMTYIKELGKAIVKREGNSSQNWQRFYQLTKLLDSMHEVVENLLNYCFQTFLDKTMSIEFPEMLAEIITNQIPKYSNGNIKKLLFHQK

[5] = target: Cannabinoid receptor 1 (Homo sapiens, UniProt P21554); assay type: functional, cell-based
[6] = target: Kappa-type opioid receptor (Homo sapiens, UniProt P41145)
[7] = target: 5-hydroxytryptamine receptor 2B (Homo sapiens, UniProt P41595); assay type: functional, cell-based
[8] = target: T4, 5-hydroxytryptamine receptor 1A (Homo sapiens, UniProt P08908); assay type: functional, cell-based
T4 sequence (P08908 whole entry): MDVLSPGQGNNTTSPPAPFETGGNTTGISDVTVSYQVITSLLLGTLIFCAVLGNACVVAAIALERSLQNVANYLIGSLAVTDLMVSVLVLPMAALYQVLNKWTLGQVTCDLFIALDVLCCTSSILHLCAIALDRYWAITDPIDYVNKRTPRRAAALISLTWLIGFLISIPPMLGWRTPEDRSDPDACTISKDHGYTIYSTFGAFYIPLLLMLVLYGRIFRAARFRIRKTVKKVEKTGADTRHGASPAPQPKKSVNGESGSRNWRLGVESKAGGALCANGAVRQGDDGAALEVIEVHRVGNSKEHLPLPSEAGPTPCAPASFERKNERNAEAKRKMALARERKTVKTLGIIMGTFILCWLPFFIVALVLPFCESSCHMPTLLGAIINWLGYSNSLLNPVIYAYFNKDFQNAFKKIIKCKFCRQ

[9] = target: Gamma-aminobutyric acid receptor subunit alpha-1 (Rattus norvegicus, UniProt P62813)
[10] = target: Delta-type opioid receptor (Homo sapiens, UniProt P41143)
[11] = target: Histamine H3 receptor (Homo sapiens, UniProt Q9Y5N1)
[12] = target: T5, Gastrin/cholecystokinin type B receptor (Homo sapiens, UniProt P32239)
T5 sequence (P32239 whole entry): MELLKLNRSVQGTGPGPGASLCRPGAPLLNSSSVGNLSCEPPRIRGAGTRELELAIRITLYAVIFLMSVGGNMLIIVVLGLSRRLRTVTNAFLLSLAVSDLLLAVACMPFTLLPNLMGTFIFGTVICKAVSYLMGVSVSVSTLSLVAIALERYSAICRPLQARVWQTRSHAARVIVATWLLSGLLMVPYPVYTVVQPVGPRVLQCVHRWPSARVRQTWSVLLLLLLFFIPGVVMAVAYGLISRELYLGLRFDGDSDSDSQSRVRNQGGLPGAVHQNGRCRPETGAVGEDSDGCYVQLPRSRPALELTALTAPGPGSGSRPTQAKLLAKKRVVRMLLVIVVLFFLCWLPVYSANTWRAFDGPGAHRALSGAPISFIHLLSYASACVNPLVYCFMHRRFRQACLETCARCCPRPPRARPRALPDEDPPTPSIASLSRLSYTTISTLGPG
Also: assay procedure not described here.

Sequence of Gamma-aminobutyric acid receptor subunit alpha-1 (P62813 whole entry): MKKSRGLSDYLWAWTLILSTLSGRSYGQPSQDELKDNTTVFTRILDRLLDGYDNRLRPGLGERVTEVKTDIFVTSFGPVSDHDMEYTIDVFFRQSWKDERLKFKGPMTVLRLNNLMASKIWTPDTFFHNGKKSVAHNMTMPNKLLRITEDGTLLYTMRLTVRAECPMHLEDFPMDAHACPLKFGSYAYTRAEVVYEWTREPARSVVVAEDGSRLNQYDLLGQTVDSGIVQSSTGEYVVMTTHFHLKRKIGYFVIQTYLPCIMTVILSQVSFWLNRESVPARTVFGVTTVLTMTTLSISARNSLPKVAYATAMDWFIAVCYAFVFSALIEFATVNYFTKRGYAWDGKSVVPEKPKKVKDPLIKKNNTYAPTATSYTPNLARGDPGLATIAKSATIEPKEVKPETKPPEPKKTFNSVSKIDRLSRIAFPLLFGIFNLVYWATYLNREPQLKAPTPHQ
Sequence of Histamine H3 receptor (Q9Y5N1 whole entry): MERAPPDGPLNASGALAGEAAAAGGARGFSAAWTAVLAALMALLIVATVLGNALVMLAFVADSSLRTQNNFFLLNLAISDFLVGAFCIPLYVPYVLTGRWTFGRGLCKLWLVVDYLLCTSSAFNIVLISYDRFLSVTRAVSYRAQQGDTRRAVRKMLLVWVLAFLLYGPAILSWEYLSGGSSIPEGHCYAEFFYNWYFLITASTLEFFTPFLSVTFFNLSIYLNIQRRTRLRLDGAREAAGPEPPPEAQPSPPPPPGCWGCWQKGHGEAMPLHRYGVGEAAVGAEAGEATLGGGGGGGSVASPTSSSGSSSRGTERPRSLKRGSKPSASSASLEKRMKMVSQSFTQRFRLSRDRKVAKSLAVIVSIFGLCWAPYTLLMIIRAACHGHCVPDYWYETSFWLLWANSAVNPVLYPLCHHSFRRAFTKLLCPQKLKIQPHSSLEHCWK
Sequence of Cannabinoid receptor 1 (P21554 whole entry): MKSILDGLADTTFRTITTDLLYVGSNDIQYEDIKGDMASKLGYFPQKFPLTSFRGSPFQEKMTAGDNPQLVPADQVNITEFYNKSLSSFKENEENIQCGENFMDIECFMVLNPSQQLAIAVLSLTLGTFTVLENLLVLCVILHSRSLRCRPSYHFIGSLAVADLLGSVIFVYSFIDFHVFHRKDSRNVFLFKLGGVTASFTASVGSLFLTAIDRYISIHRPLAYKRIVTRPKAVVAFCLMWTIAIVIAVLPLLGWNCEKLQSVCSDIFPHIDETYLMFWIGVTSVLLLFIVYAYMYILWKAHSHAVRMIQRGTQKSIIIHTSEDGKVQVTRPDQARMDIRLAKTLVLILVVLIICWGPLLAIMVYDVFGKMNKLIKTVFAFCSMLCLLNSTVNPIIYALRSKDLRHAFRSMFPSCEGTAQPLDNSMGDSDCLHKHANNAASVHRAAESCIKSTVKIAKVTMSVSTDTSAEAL
Sequence of Vasopressin V2 receptor (P30518 whole entry): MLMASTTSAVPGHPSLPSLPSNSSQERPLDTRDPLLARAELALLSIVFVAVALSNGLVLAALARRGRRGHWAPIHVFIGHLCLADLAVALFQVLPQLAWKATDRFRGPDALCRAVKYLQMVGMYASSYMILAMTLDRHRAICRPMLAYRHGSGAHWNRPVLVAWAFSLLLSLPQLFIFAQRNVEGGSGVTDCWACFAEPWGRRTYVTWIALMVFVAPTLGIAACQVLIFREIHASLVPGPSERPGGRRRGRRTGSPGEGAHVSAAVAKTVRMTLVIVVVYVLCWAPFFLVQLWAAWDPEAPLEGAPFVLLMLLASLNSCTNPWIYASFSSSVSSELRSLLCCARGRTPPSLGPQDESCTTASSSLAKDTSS
Sequence of Kappa-type opioid receptor (P41145 whole entry): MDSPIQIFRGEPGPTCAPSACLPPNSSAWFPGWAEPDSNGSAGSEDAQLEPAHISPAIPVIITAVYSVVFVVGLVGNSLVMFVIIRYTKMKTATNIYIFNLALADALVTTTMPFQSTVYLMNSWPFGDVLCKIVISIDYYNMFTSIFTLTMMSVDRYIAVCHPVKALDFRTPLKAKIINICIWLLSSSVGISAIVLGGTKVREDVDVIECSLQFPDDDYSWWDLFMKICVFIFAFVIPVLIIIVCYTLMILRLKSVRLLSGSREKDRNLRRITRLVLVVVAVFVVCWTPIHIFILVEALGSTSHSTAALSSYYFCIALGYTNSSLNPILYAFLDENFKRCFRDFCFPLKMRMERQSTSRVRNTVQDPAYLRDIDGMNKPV
Sequence of 5-hydroxytryptamine receptor 2B (P41595 whole entry): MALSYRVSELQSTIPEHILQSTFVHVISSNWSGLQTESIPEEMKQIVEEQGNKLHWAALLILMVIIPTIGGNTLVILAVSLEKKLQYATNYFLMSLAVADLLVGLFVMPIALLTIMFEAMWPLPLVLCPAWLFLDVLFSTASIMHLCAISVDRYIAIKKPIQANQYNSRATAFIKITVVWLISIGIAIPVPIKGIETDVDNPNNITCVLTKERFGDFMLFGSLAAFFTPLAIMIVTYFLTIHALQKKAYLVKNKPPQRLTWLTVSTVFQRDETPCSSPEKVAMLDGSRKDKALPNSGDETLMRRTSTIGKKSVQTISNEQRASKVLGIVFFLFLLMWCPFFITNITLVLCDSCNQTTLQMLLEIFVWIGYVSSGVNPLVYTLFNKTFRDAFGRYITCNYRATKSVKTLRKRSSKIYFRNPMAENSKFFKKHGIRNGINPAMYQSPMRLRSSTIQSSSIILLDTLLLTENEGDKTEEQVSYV
Sequence of Delta-type opioid receptor (P41143 whole entry): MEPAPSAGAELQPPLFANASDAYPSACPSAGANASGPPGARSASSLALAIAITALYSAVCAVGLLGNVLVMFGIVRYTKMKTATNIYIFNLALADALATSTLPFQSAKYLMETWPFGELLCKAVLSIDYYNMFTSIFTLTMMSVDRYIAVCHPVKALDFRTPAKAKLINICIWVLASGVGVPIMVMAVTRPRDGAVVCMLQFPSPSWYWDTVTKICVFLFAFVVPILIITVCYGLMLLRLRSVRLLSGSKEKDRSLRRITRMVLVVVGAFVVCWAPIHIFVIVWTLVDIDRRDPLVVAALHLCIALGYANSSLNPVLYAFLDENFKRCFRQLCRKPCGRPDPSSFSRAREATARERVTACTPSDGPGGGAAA

| SMILES | AC50 [1] [µM] | AC50 [2] [µM] | AC50 [3] [µM] | AC50 [4] [µM] | AC50 [5] [µM] | AC50 [6] [µM] | AC50 [7] [µM] | AC50 [8] [µM] | AC50 [9] [µM] | AC50 [10] [µM] | AC50 [11] [µM] | AC50 [12] [µM] |
| --- | --- | --- | --- | --- | --- | --- | --- | --- | --- | --- | --- | --- |
| C#C[C@]1(O)CC[C@H]2[C@@H]3CCC4=Cc5oncc5C[C@]4(C)[C@H]3CC[C@@]21C [DANAZOL] | > 10 | > 30 | > 10 | 0.111 | > 30 | > 10 | > 10 | > 10 | > 10 | > 30 | > 10 | – |
| C[C@](N)(Cc1ccc(O)c(O)c1)C(=O)O [METHYLDOPA] | > 10 | > 30 | > 10 | – | – | > 10 | > 10 | > 10 | > 10 | > 30 | – | – |
| CN1C(=O)OC(C)(C)C1=O [TRIMETHADIONE] | > 10 | > 10 | > 10 | > 10 | > 30 | > 10 | > 10 | > 10 | > 10 | > 30 | > 10 | – |
| COc1ccc2c3c1O[C@H]1[C@@H](O)C=C[C@H]4[C@@H](C2)N(C)CC[C@@]341 [CODEINE] | > 30 | > 30 | > 10 | – | > 30 | – | > 10 | > 10 | > 30 | – | > 10 | > 30 |
| CC(C)Cn1cnc2c(N)nc3ccccc3c21 [IMIQUIMOD] | > 10 | > 10 | > 10 | > 10 | – | > 10 | 19 | > 10 | > 10 | > 30 | > 10 | – |
| CCN(CC)C(=O)N[C@H]1C[C@@H]2c3cccc4[nH]cc(c34)C[C@H]2N(C)C1 [TERGURIDE] | > 30 | > 30 | > 30 | – | > 30 | > 30 | > 30 | 0.18 | > 30 | > 30 | > 30 | > 30 |
| CC(=O)O[C@H]1C[C@@H]2CC[C@@H]3[C@H](CC[C@@]4(C)[C@H]3C[C@H]([N+]3(C)CCCCC3)[C@@H]4OC(C)=O)[C@@]2(C)C[C@@H]1N1CCCCC1 [VECURONIUM] | > 30 | > 30 | > 30 | – | > 30 | > 30 | > 30 | > 30 | > 30 | > 30 | 18 | > 30 |
| CCCN(CCC)C(=O)C(CCC(=O)O)NC(=O)c1ccccc1 (stereo not given) [PROGLUMIDE] | > 30 | > 30 | > 10 | > 30 | – | > 10 | > 10 | > 10 | > 10 | > 30 | > 30 | – |
| N#Cc1ccc([C@H]2CCc3cncn32)c(F)c1 [OSILODROSTAT] | – | > 10 | – | – | – | > 10 | – | – | > 10 | > 10 | > 10 | > 10 |
| CCCc1nc(C(C)(C)O)c(C(=O)OCc2oc(=O)oc2C)n1Cc1ccc(-c2ccccc2-c2nnn[nH]2)cc1 [OLMESARTAN MEDOXOMIL] | > 30 | > 50 | > 10 | – | > 30 | > 10 | > 10 | > 10 | > 10 | > 10 | – | > 50 |
| CNC(C)CCC=C(C)C (stereo not given) [ISOMETHEPTENE] | > 30 | > 30 | – | – | – | – | – | – | – | – | > 30 | > 30 |
| Cc1ccc(S(=O)(=O)NC(=O)NN2CC3CCCC3C2)cc1 (stereo not given) [GLICLAZIDE] | > 10 | > 10 | > 10 | – | – | > 10 | > 10 | > 10 | > 10 | > 30 | – | – |
| CN1CCN(CC/C=C2/c3ccccc3Sc3ccc(S(=O)(=O)N(C)C)cc32)CC1 [THIOTHIXENE] | 20 | > 30 | > 10 | – | > 30 | 11.6 | > 10 | – | > 10 | > 10 | – | > 30 |
| C[C@]12CC[C@H]3[C@@H](CCC4=CC(=O)CC[C@@]43C)[C@@H]1CC[C@@H]2O [TESTOSTERONE] | > 10 | > 10 | > 10 | 0.246 | – | > 10 | > 10 | > 10 | > 10 | > 30 | – | – |
| Cn1c(=O)c2c(ncn2CC2OCCO2)n(C)c1=O [DOXOFYLLINE] | > 10 | > 30 | > 30 | – | > 30 | > 30 | > 30 | > 30 | > 30 | > 30 | > 30 | > 30 |
| O=C(NCCN1CCOCC1)c1ccc(Cl)cc1 [MOCLOBEMIDE] | > 10 | > 10 | > 10 | – | – | > 10 | > 10 | > 10 | > 10 | > 30 | – | – |
| NCC[C@H](O)C(=O)N[C@@H]1C[C@H](N)[C@@H](O[C@H]2O[C@H](CN)[C@@H](O)[C@H](O)[C@H]2O)[C@H](O)[C@H]1O[C@H]1O[C@H](CO)[C@@H](O)[C@H](N)[C@H]1O [AMIKACIN] | > 10 | > 10 | > 10 | > 10 | – | > 10 | > 10 | > 10 | > 10 | > 30 | – | – |

Source: ChEMBL document CHEMBL5291721, “A preclinical secondary pharmacology resource illuminates target-adverse drug reaction associations of marketed drugs” (Nat Commun, 2023)
